In patent publication US7737177B2, “Processes for preparing crystalline and amorphous mupirocin calcium” (priority 2001, dated 2010):
Where two headings read alike, the source gives them in different places. Values belong to the compound of their own block, whether it stands above or below them.

How the values were obtained:
[1] = thermal stability reported by Baker et al. (purity after storage); format: physicochemical
From the text: The Baker et al. patents disclose preparing amorphous form of mupirocin calcium by crystallization from an aqueous solution consisting of 50% methanol followed by trituration with dry ether.
Baker et al. expresses its assay in relation to psuedomonic acid. The assay of the present invention is expressed differently, as illustrated by Table-1.
In connection with amorphous mupirocin calcium, the assay of the present invention can be converted into the assay expressed as in Baker et al. by multiplying with a factor of 0.9637. This 89.9% assay of Baker et al. corresponds to a 93.29% assay as calculated by the method of the present invention.
In connection with mupirocin calcium dihydrate, the 92.1% assay of Baker et al. corresponds to a 98.88% assay as expressed by the present invention.

[2] = Baker et al., Column 1, Lines 31-33; cited from earlier work
[3] = thermal stability on storage (HPLC assay, Karl Fischer water, HPLC impurities); format: physicochemical; parameters: Total Impurity: unit not given here
Protocol: As used herein, the term “assay” refers to a determination of purity/presence of a quantity of a substance as described by the European Pharmacopoeia (“EP”). EUROPEAN PHARMACOPOEIA, Fourth Edition, pp 1602-1604, Council of Europe, Strasbourg, 2001. The assay is done with high pressure liquid chromatography (“HPLC”).
As used herein, the term “total impurity” refers to the sum of all areas under the peaks of impurities as described by the European Pharmacopoeia. It is determined by another HPLC method and is different than the assay.
The present invention provides for amorphous mupirocin calcium with high thermal stability. Thermal stability is defined as the ability to resist chemical degradation during storage, especially in light of the conditions during storage. The higher purity and […] of amorphous mupirocin calcium makes it less susceptible to chemical degradation during storage.
Glass ampoule in Aluminum laminate bag with silica gel was used as the packing system.
Relative humidity was exactly 60%.
The water content was measured by the Karl Fischer method.
High pressure liquid chromatography (HPLC) was performed on a Zorbax® C-8 (5 um; 250×4.6 mm), reverse phase column with ammonium acetate buffer solution in water: tetrahydrofuran mixture as eluent. Detected by U.V. spectroscopy at λ=240 nm.
The assay also used the same HPLC instruments.

[4] = cited from earlier work; for Purity after storage: expressed as a percentage of pure free pseudomonic acid
[5] = tested on: Gram positive bacteria (e.g. Staphylococcus aureus, Streptococcus pyogenes, Streptococcus pneumoniae, Klebsiella pneumoniae) and some Gram negative bacteria (e.); conditions: mainly Gram positive and some Gram negative bacteria; cited from earlier work
[6] = both for humans and animals; cited from earlier work
[7] = according to the maker of Bactroban, cited from earlier work
[8] = 1 Kg batch, 0 months at 2–8° C.
[9] = 1 Kg batch, 0.5 months at 2–8° C.
[10] = 1 Kg batch, 0.5 months at 25° C.
[11] = 1 Kg batch, 1.0 months at 2–8° C.
[12] = 1 Kg batch, 2.0 months at 2–8° C.
[13] = 187.2 grams batch, 2° C.-8° C. 60% RH, 0 month
[14] = 187.2 grams batch, 2° C.-8° C. 60% RH, 1 month
[15] = 187.2 grams batch, 2° C.-8° C. 60% RH, 2 months
[16] = 187.2 grams batch, 2° C.-8° C. 60% RH, 3 months
[17] = 187.2 grams batch, 25° C./60% RH, 0 month
[18] = 187.2 grams batch, 25° C./60% RH, 1 month
[19] = 187.2 grams batch, 25° C./60% RH, 2 months
[20] = 187.2 grams batch, 25° C./60% RH, 3 months

- Purity after storage ([1]; 2 weeks, 37° C., expressed as a percentage of mupirocin calcium anhydrous): 91.14%
- Purity after storage ([1]; 2 weeks, 50° C., expressed as a percentage of mupirocin calcium anhydrous): 74.71%
- Purity after storage ([1]; 2 weeks, 80° C., expressed as a percentage of mupirocin calcium anhydrous): 13.05%
- Purity after storage ([1]; 8 days, 80° C., expressed as a percentage of mupirocin calcium anhydrous): 27.05%
- Purity after storage ([1]; 10 days, 50° C., expressed as a percentage of mupirocin calcium anhydrous): 77.70%
- level of impurity MUP II (impurity E in the EP) ([3]; after storage for one month): more than 1%
- total level of impurities (not assay) ([3]; after two months of storage, FIGS. 9 and 10): more than 3.5%
SMILES: C/C(=C\C(=O)OCCCCCCCCC(=O)[O-])C[C@@H]1OC[C@H](C[C@@H]2O[C@H]2[C@@H](C)[C@H](C)O)[C@@H](O)[C@H]1O.C/C(=C\C(=O)OCCCCCCCCC(=O)[O-])C[C@@H]1OC[C@H](C[C@@H]2O[C@H]2[C@@H](C)[C@H](C)O)[C@@H](O)[C@H]1O.O.O.[Ca+2] [Anhydrous amorphous mupirocin calcium, mupirocin calcium]
- water solubility [2]: sparingly water soluble
- Purity after storage ([4]; 2 weeks, 37° C.): 87.83%
- Purity after storage ([4]; 2 weeks, 50° C.): 72.0%
- Purity after storage ([4]; 2 weeks, 80° C.): 12.58%
- Purity after storage ([4]; 8 days, 80° C.): 26.07%
- Purity after storage ([4]; 10 days, 50° C.): 74.88%
- thermal stability ([4]; Baker et al., Column 1, Lines 31-33): poor thermal stability
- deterioration at high temperatures ([4]; chart in Columns 8 and 9 of the '093 patent): rapid deterioration at high temperatures

- Assay [3, 8]: 98.5
- Water [3, 8]: 1.2
- Assay ([3]; 1 Kg batch, 0 months at 25° C.): 98.5
- Water ([3]; 1 Kg batch, 0 months at 25° C.): 1.5
- Assay [3, 9]: 95.2
- Total Impurity [3, 9]: 2.71
- Water [3, 9]: 1.3
- Assay [3, 10]: 97.4
- Total Impurity [3, 10]: 2.83
- Water [3, 10]: 1.2
- Assay ([3]; 1 Kg batch, 1 month at 25° C.): 98.3
- Total Impurity ([3]; 1 Kg batch, 1 month at 25° C.): 3.18
- Water ([3]; 1 Kg batch, 1 month at 25° C.): 1.9
- Assay [3, 11]: 95.5
- Total Impurity [3, 11]: 2.88
- Water [3, 11]: 1.9
- Assay [3, 12]: 96.7
- Total Impurity [3, 12]: 2.86
- Water [3, 12]: 1.6
- Assay ([3]; 1 Kg batch, 2 months at 25° C.): 96.5
- Total Impurity ([3]; 1 Kg batch, 2 months at 25° C.): 3.21
- Water ([3]; 1 Kg batch, 2 months at 25° C.): 1.5
- Assay (HPLC) [3, 13]: 96.0%
- Description [3, 13]: White
- Impurities (HPLC) Imp. C [3, 13]: 1.31%
- Impurities (HPLC) MUP II [3, 13]: 0.31%
- Impurities (HPLC) Total Impurities [3, 13]: 2.22%
- Water [3, 13]: 0.6%
- Assay (HPLC) [3, 14]: 95.6%
- Description [3, 14]: White
- Water [3, 14]: 0.8%
- Assay (HPLC) [3, 15]: 95.3%
- Description [3, 15]: White
- Impurities (HPLC) Imp. C [3, 15]: 1.32%
- Impurities (HPLC) MUP II [3, 15]: 0.41%
- Impurities (HPLC) Total Impurities [3, 15]: 2.43%
- Water [3, 15]: 0.7%
- Assay (HPLC) [3, 16]: 96.1%
- Description [3, 16]: White
- Impurities (HPLC) Imp. C [3, 16]: 1.35%
- Impurities (HPLC) MUP II [3, 16]: 0.42%
- Impurities (HPLC) Total Impurities [3, 16]: 2.62%
- Water [3, 16]: 1.1%
- Assay (HPLC) [3, 17]: 96.0%
- Description [3, 17]: White powder
- Impurities (HPLC) Imp. C [3, 17]: 1.31%
- Impurities (HPLC) MUP II [3, 17]: 0.31%
- Impurities (HPLC) Total Impurities [3, 17]: 2.22%
- Water [3, 17]: 0.6%
- Assay (HPLC) [3, 18]: 97.5%
- Description [3, 18]: White
- Water [3, 18]: 0.8%
- Assay (HPLC) [3, 19]: 94.1%
- Description [3, 19]: White
- Impurities (HPLC) Imp. C [3, 19]: 1.34%
- Impurities (HPLC) MUP II [3, 19]: 0.77%
- Impurities (HPLC) Total Impurities [3, 19]: 3.02%
- Water [3, 19]: 0.8%
- Assay (HPLC) [3, 20]: 95.9%
- Description [3, 20]: White
- Impurities (HPLC) Imp. C [3, 20]: 1.37%
- Impurities (HPLC) MUP II [3, 20]: 0.89%
- Impurities (HPLC) Total Impurities [3, 20]: 3.25%
- Water [3, 20]: 1.0%
- total impurity content ([3]; after 2 months): about 3%
- Assay ([3]; after 2 months of storage at about 25° C. and at about 2-8° C.): about 96%
- total level of impurity (not assay) ([3]; after at least two months of storage at 25° C.): less than 3.5%
- level of impurity MUP II (impurity E in the EP) ([3]; storage at 25° C. and RH 60% for at least two months): ≤ 1%
SMILES: C/C(=C\C(=O)OCCCCCCCCC(=O)[O-])C[C@@H]1OC[C@H](C[C@@H]2O[C@H]2[C@@H](C)[C@H](C)O)[C@@H](O)[C@H]1O.C/C(=C\C(=O)OCCCCCCCCC(=O)[O-])C[C@@H]1OC[C@H](C[C@@H]2O[C@H]2[C@@H](C)[C@H](C)O)[C@@H](O)[C@H]1O.O.O.[Ca+2] [amorphous mupirocin calcium, mupirocin calcium]

Second part, the compound before the results:

SMILES: C/C(=C\C(=O)OCCCCCCCCC(=O)O)C[C@@H]1OC[C@H](C[C@@H]2O[C@H]2[C@@H](C)[C@H](C)O)[C@@H](O)[C@H]1O [Pseudomonic acid A, 9-{4[5S(2S,3S-epoxy-5S-hydroxy-4S-methylhexyl)-3R,4R-dihydroxy-tetrahydropyran-2S-yl]-3-methylbut-2(E)-enoyloxy}nonanoic acid]
- Purity after storage ([4]; 2 weeks, 37° C.): 90.61%
- Purity after storage ([4]; 2 weeks, 50° C.): 51.18%
- Purity after storage ([4]; 2 weeks, 80° C.): 0%
- Purity after storage ([4]; 8 days, 80° C.): 0%
- Purity after storage ([4]; 10 days, 50° C.): 71.59%
- minimal inhibiting concentration [5]: 0.02 to 0.5 mg/L
- toxicity [6]: very low toxicity

SMILES: C/C(=C\C(=O)OCCCCCCCCC(=O)[O-])C[C@@H]1OC[C@H](C[C@@H]2O[C@H]2[C@@H](C)[C@H](C)O)[C@@H](O)[C@H]1O.C/C(=C\C(=O)OCCCCCCCCC(=O)[O-])C[C@@H]1OC[C@H](C[C@@H]2O[C@H]2[C@@H](C)[C@H](C)O)[C@@H](O)[C@H]1O.O.O.[Ca+2] [mupirocin calcium]
- side effects ([7]; administered intravenously at 250 mg): without any major side effects
- side effects ([7]; administered orally at 500 mg): without any major side effects

SMILES: C/C(=C\C(=O)OCCCCCCCCC(=O)O)C[C@@H]1OC[C@H](C[C@@H]2O[C@H]2[C@@H](C)[C@H](C)O)[C@@H](O)[C@H]1O [Crystalline mupirocin calcium dihydrate, mupirocin calcium dihydrate]
- Purity after storage ([1]; 2 weeks, 37° C., expressed as a percentage of mupirocin calcium dihydrate): 99.08%
- Purity after storage ([1]; 2 weeks, 50° C., expressed as a percentage of mupirocin calcium dihydrate): 97.60%
- Purity after storage ([1]; 2 weeks, 80° C., expressed as a percentage of mupirocin calcium dihydrate): 92.95%
- Purity after storage ([1]; 8 days, 80° C., expressed as a percentage of mupirocin calcium dihydrate): 95.91%
- Purity after storage ([1]; 10 days, 50° C., expressed as a percentage of mupirocin calcium dihydrate): 97.79%
- Purity after storage ([4]; 2 weeks, 37° C., calcium dihydrate): 92.28%
- Purity after storage ([4]; 2 weeks, 50° C., calcium dihydrate): 90.90%
- Purity after storage ([4]; 2 weeks, 80° C., calcium dihydrate): 86.57%
- Purity after storage ([4]; 8 days, 80° C., calcium dihydrate): 89.33%
- Purity after storage ([4]; 10 days, 50° C., calcium dihydrate): 91.08%
